Assay results as given in patent publication US20130040990A1, “SYNTHESIS OF DGJNAc FROM D-GLUCURONOLACTONE AND USE TO INHIBIT ALPHA-N-ACETYLGALACTOSAMINIDASES” (The Chancellor, Masters and Scholars of the University of …, priority 2010, published 2013).

Key:
GalNAcases = conditions: literature statement; cited from earlier work
β-hexosaminidases = conditions: literature statement; cited from earlier work
[1] = target: β-hexosaminidase from human placenta; experiment: Inhibition of β-hexosaminidase from human placenta; assay type: biochemical; conditions: for Ki: 1L non-competitive, 1D competitive
[2] = system: α-N-acetylgalactosaminidases; experiment: Inhibition of α-N-acetylgalactosaminidases (source not given); assay type: biochemical
[3] = target: T1, coffee bean α-galactosidase (Coffea arabica, UniProt Q42656); experiment: biochemical
T1 construct: coffee bean α-galactosidase; from tissue; host or cells: coffee bean

[4] = target: T2, α-N-acetylgalactosaminidase (GalNAcase) from chicken liver (Gallus gallus, UniProt Q90744); experiment: Inhibition of GalNAcase from chicken liver; assay type: biochemical; conditions: competitive inhibition
T2 construct: from tissue; host or cells: chicken liver
T2 sequence (Q90744 1-405): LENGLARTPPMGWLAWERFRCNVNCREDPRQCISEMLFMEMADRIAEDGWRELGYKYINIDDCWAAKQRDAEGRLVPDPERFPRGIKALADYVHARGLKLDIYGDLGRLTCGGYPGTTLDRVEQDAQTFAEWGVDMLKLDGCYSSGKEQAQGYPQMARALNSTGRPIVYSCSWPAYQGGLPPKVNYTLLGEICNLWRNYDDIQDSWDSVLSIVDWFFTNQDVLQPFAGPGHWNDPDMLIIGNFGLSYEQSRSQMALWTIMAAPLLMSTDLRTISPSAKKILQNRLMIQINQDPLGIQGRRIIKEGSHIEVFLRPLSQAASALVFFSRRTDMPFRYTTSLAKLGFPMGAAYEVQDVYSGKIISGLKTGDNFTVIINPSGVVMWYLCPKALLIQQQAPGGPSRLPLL

[5] = target: α-N-acetylgalactosaminidase (GalNAcase) from Charonia lampas; experiment: Inhibition of GalNAcase from Charonia lampas; assay type: biochemical; conditions: competitive inhibition
[6] = target: β-hexosaminidase from Jack bean; experiment: Inhibition of β-hexosaminidase from Jack bean; assay type: biochemical
[7] = target: β-hexosaminidase from bovine kidney; experiment: Inhibition of β-hexosaminidase from bovine kidney; assay type: biochemical
[8] = target: β-hexosaminidase from HL-60; experiment: Inhibition of β-hexosaminidase from HL-60; assay type: biochemical

T1 sequence (Q42656 16-378): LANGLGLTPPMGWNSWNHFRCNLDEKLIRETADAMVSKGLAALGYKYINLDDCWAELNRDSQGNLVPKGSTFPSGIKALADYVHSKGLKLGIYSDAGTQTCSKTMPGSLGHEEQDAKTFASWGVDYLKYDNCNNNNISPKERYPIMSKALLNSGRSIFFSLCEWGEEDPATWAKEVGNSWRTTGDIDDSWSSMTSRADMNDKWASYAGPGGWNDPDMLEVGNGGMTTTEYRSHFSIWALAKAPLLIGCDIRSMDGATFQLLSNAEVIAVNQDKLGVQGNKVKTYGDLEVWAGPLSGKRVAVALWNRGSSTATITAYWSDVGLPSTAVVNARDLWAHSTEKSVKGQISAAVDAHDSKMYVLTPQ

| SMILES | inhibition of GalNAcases (GalNAcases) | inhibition of β-hexosaminidases (β-hexosaminidases) | Ki [1] | inhibition of α-N-acetylgalactosaminidases [2] | inhibition of coffee bean α-galactosidase [3] | Ki [4] | Ki [5] | IC50 [6] | IC50 [7] | IC50 [1] | IC50 [8] | IC50 [3] |
| --- | --- | --- | --- | --- | --- | --- | --- | --- | --- | --- | --- | --- |
| CC(=O)N[C@H]1c2nc(CC(=O)O)cn2[C@H](CO)[C@H](O)[C@@H]1O [nagstatin 4, nagstatin] | does not inhibit | potent inhibitor | – | – | – | – | – | – | – | – | – | – |
| CC(=O)NC1CNC(CO)C(O)C1O [L-DGJNAc 1L] | – | – | 1100 µM | no inhibition | no inhibition | – | – | – | – | – | – | – |
| CC(=O)N[C@H]1CN[C@H](CO)[C@H](O)[C@@H]1O [DGJNAc 1D, 2-acetamido-1,2-dideoxy-D-galacto-nojirimycin] | – | – | 2.2 µM | – | – | 0.081 µM | 0.136 µM | 1.8 µM | 4.2 µM | 8.3 µM | 2.2 µM | 64 µM |
